{"source": "patent US8357659B2", "about": "“Method of treating pain or itching with APETx2 peptide toxin” (priority 2008, dated 2013)", "key": {"[1]": {"system": "thermal hyperalgesia induced by CFA", "test": "Inflammation-induced (CFA) thermal hyperalgesia in rats, hotplate at 50° C.", "type": "in vivo, rat", "procedure": "Sensitivity to heat of adult male Wistar rats (Charles River, France) was tested by measuring the time taken by the animal to retract one of its hind paws when placed on a hotplate at 50° C. (Bioseb, France), before and after induction of inflammation by subcutaneous injection of a solution of Freund's complete adjuvant (CFA, Sigma-Aldrich, France). The rats were acclimatised to the experimentation room for at least 30 minutes and each measurement was performed in duplicate. An initial measurement was performed before induction of inflammation. The rats were subsequently anaesthetised (isofluorane) while 150 μl of CFA diluted 1:1 with a saline solution (0.9% NaCl) containing either toxins (PcTx1 or APETx2, 120 nM and 20 μM, respectively) or the vehicle was injected (26G needle mounted on a 1 ml syringe) subcutaneously into the plantar side of one of the hind paws. The time taken by the animal to lift the injected hind paw was subsequently measured at 50° C., 2, 4 and 24 hours after the injection of CFA.\nASIC3 channel-specific iRNA (no. 1121; CTACACGCTATGCCAAGGA, SEQ ID NO: 1) and its control (no. 1121S; GCTCACACTACGCAGAGAT, SEQ ID NO: 2) were designed in the laboratory and were synthesised by MWG Biotech Company (Germany). The ASIC3-specific iRNA was validated by quantification of the messenger RNA levels by quantitative RT-PCR for each ASIC channel and for the TRPV1 channel, following intrathecal injections into the lumbar region of the spinal cord of rats, at a rate of one injection per day for 3 consecutive days, before the animal was sacrificed. The same procedure was followed before induction of inflammation by CFA. Each injection was 10 μl in volume, containing 2 μg of iRNA mixed with the transfection agent i-Fect (Neuromics) at a ratio of 1 to 4."}, "heteromer ASIC2b+3": {"target": "T1, heteromer ASIC2b+3 (Rattus norvegicus, UniProt O35240+Q62962)", "T1 sequence (Q62962 1-563 isoform Q62962-2)": "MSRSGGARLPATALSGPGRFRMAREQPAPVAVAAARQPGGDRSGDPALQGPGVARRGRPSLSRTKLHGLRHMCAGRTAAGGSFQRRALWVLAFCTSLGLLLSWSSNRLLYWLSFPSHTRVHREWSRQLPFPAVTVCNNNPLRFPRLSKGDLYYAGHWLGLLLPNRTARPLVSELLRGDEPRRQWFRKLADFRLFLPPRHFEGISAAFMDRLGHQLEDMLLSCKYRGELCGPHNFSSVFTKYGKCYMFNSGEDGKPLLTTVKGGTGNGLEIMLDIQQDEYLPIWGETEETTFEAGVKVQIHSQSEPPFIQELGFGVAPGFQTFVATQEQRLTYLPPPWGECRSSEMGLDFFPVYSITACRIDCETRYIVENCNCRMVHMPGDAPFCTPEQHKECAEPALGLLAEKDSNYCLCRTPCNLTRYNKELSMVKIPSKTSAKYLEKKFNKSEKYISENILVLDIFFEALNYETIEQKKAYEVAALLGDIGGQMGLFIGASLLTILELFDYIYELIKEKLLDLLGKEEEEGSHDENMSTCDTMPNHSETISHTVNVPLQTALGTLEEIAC", "T1 sequence (O35240 1-533)": "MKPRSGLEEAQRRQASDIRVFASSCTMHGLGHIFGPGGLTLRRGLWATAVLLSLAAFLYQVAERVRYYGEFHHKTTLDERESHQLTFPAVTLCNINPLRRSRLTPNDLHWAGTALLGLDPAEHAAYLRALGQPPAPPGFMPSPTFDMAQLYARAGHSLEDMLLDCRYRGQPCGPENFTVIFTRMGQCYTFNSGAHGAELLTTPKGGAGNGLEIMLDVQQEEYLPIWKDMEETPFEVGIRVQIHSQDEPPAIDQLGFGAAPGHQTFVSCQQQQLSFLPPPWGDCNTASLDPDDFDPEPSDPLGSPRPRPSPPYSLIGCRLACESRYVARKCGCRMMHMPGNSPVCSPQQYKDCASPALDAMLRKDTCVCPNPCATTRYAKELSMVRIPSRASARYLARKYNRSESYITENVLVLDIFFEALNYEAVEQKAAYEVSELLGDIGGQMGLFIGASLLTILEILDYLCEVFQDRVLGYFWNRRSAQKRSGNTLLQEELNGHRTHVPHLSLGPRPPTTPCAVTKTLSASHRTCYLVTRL", "details": "cited from earlier work"}}, "data": [{"substance": "peptide of 42 amino acids (SEQ ID NO: 3), three disulphide bonds, from sea anemone Anthopleura elegantissima; blocks ASIC3 [APETx2]", "values": [{"measurement": "development of thermal hyperalgesia", "setting": "[1]; toxin concomitantly injected with CFA (APETx2 20 μM, PcTx1 120 nM), four hours after CFA", "result": "does not develop"}, {"measurement": "thermal hyperalgesia behaviour versus vehicle control animals", "setting": "[1]; twenty hours after the injection of CFA, data not represented", "result": "do not display any behaviour different"}, {"measurement": "effect on the current of the heteromer ASIC2b+3", "setting": "heteromer ASIC2b+3", "result": "inhibits"}]}]}
